Consider three molecules from patent US10137174B2, “Methods and materials for treating cancers that express reduced levels of wild-type p53 polypeptides” (Mayo Foundation for Medical Education and Research, priority 2009, dated 2018).

One test has as its target T1, USP10 polypeptide (Homo sapiens, UniProt Q14694).
T1 construct: His; made in house; host or cells: E. coli BL21 (pET-28a vector)
Briefly: Ub-AMC deubiquitination assay with USP10 polypeptide. In kind it is biochemical. The note with it: USP10 4 μg/mL, Ub-AMC 300 nmol/L, vs DMSO, p<0.01. As for the experimental part: FIG. 17A is a concentration curve graph plotting the level of deubiquitination of Ub-AMC observed following incubation with the indicated amounts of USP10 polypeptide (μg). FIG. 17B is a graph plotting the level of deubiquitination of Ub-AMC in the presence (right) or absence (left) of 4 μg/mL of USP10 polypeptides and the indicated compound.
Briefly, the amount of Ub-AMC deubiquitination in vitro increased as the concentration of USP10 polypeptides increased (FIG. 17A).
N-ethylmaleimide (1 mM), Z-phe-ala fluoromethyl ketone ([…] dihydrochloride (10 μg/mL), E-64 (10 μM), chymostatia ([…] fluoride (40 μM), E-64d (0.5 μM), and cystatin (36 μg/mL) were tested for the ability to inhibit USP10 polypeptide activity using USP10 polypeptide (4 μg/mL) and Ub-AMC (300 nmol/L). Briefly, both enzyme (USP10 polypeptide) and substrate (Ub-AMC) were freshly prepared in USP10 reaction buffer (50 mmol/L Tris-HCl (pH 7.6), 0.5 mmol/L EDTA, 5 mmol/L DTT, 0.01% Triton X-100, and 0.05 mg/mL serum albumin) for each run. Each well (except substrate control wells) in a typical assay contained 4 μg/mL of USP10, the compound, or 2% DMSO. The wells were incubated for 30 minutes to attain equilibrium, and the enzymatic reaction was then initiated by adding the substrate (300 nmol/L of Ub-AMC). […]

The subject of test [1] is USP10 phosphorylation (PIKKs/ATM). Briefly: USP10 phosphorylation at SQ/TQ motifs after DNA damage (FLAG-USP10 IP, pSQ/TQ blot) in HCT116 cells. Type of test: cell-based. To be noted: Ku55933, 2 hours pretreatment; 10 Gy radiation; HCT116 cells with FLAG-USP10.
Method: Forty-eight hours later, the cells were left untreated or treated with 10 Gy radiation, 40 J/m^2 UV, or 20 mM etoposide. After an additional 1 hour, the cells were harvested. Cell lysates were subjected to immunoprecipitation with anti-FLAG antibody and immunobloted with phospho-SQ/TQ (pSQ/TQ) antibody. […] After 2 hours of incubation, cells were left untreated or treated with 10 Gy radiation. The phosphorylation of USP10 was examined as in (FIG. 6C). […] Cells were left untreated or treated with 10 Gy radiation. USP10 phosphorylation was examined by pSQ/TQ antibody.
Cells were lysed with NETN buffer (20 mM Tris-HCl, pH 8.0, 100 mM NaCl, 1 mM EDTA, 0.5% Nonidet P-40) containing 50 mM β-glycerophosphate, 10 mM NaF, and 1 mg/mL each of pepstatin A, and aprotinin. Whole cell lysates obtained by centrifugation were incubated with 2 μg of antibody and protein A or protein G Sepharose beads (Amersham Biosciences) for 2 hours at 4° C. The immunocomplexes were then washed with NETN buffer three times and separated by SDS-PAGE. Immunoblotting was performed following standard procedures.

T1 sequence (Q14694 whole entry): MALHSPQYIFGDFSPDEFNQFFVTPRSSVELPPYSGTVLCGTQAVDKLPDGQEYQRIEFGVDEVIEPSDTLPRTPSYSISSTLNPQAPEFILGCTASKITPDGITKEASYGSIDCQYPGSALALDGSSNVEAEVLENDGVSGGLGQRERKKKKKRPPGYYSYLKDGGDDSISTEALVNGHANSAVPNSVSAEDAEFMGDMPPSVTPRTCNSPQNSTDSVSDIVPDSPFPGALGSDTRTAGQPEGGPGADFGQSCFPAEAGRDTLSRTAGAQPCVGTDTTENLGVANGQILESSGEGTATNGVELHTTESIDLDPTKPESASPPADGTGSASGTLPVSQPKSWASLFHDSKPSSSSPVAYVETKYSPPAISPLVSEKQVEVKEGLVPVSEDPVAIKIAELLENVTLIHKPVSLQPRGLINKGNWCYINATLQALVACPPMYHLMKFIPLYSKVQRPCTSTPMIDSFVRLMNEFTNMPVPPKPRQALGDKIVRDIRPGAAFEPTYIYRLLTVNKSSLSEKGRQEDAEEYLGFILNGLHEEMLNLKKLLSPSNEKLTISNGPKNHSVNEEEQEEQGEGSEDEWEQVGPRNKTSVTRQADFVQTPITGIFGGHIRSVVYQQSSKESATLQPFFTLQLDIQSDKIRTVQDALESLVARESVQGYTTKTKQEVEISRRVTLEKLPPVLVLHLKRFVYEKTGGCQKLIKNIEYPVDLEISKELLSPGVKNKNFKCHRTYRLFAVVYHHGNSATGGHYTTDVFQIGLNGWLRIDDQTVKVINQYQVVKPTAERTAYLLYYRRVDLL

As for `C[C@H](NC(=O)[C@H](Cc1ccccc1)NC(=O)OCc1ccccc1)C(=O)CF` [Z-phe-ala fluoromethyl ketone], the “deubiquitinating activity of USP10 polypeptides” value on USP10 polypeptide (compound 80 μM) is given as “significantly inhibited”.

Consider `CCN1C(=O)C=CC1=O` [N-ethylmaleimide], for which the “deubiquitinating activity of USP10 polypeptides” value on USP10 polypeptide (compound 1 mM) was “significantly inhibited”.

With `O=c1cc(-c2cccc3c2Sc2ccccc2S3)oc(N2CCOCC2)c1` [KU55933], in test [1], the “USP10 phosphorylation after IR” value was “inhibited”.
